Experimental data published in the NIST ThermoML archive (doi:10.1021/acs.jced.7b00106).

Settings: Hot wire method

FC(F)(F)/C=C/Cl [(E)-1-chloro-3,3,3-trifluoroprop-1-ene]
Settings | thermal conductivity [W/m/K]
313.49 K, 134 kPa, Gas | 0.01209
313.66 K, 195 kPa, Gas | 0.01193
313.74 K, 96 kPa, Gas | 0.01156
313.74 K, 97 kPa, Gas | 0.01206
313.81 K, 164 kPa, Gas | 0.01205
314.19 K, 96 kPa, Gas | 0.0121
314.29 K, 165 kPa, Gas | 0.01203
314.47 K, 132 kPa, Gas | 0.01204
314.68 K, 96 kPa, Gas | 0.01213
314.8 K, 166 kPa, Gas | 0.01203
315 K, 133 kPa, Gas | 0.01215
315.2 K, 96 kPa, Gas | 0.01218
315.34 K, 166 kPa, Gas | 0.01208
315.56 K, 132 kPa, Gas | 0.01212
315.75 K, 96 kPa, Gas | 0.01223
316.33 K, 96 kPa, Gas | 0.01227
321.04 K, 25085 kPa, Liquid | 0.08832
321.04 K, 34321 kPa, Liquid | 0.09144
321.04 K, 34326 kPa, Liquid | 0.09107
321.05 K, 43820 kPa, Liquid | 0.0947
321.1 K, 25070 kPa, Liquid | 0.08802
321.1 K, 34323 kPa, Liquid | 0.09161
321.12 K, 34308 kPa, Liquid | 0.0914
321.12 K, 43822 kPa, Liquid | 0.09482
321.33 K, 16965 kPa, Liquid | 0.08442
321.34 K, 9798 kPa, Liquid | 0.08117
321.36 K, 5192 kPa, Liquid | 0.07831
321.4 K, 197 kPa, Gas | 0.0125
321.4 K, 16967 kPa, Liquid | 0.08432
321.41 K, 254 kPa, Gas | 0.01268
321.41 K, 460 kPa, Liquid | 0.07538
321.42 K, 66597 kPa, Liquid | 0.1039
321.43 K, 56114 kPa, Liquid | 0.09911
321.44 K, 5187 kPa, Liquid | 0.07816
321.44 K, 66587 kPa, Liquid | 0.1042
321.45 K, 34301 kPa, Liquid | 0.09197
321.46 K, 43814 kPa, Liquid | 0.09486
321.47 K, 25082 kPa, Liquid | 0.08816
321.47 K, 34329 kPa, Liquid | 0.09187
321.47 K, 43832 kPa, Liquid | 0.09487
321.48 K, 458 kPa, Liquid | 0.07551
321.51 K, 66615 kPa, Liquid | 0.1035
321.52 K, 56121 kPa, Liquid | 0.0993
321.52 K, 66605 kPa, Liquid | 0.1041
321.55 K, 34296 kPa, Liquid | 0.09167
321.55 K, 43839 kPa, Liquid | 0.09474
321.56 K, 25086 kPa, Liquid | 0.08833
321.56 K, 34311 kPa, Liquid | 0.09191
321.63 K, 145 kPa, Gas | 0.01268
321.7 K, 256 kPa, Gas | 0.01247
321.72 K, 196 kPa, Gas | 0.01245
321.77 K, 98 kPa, Gas | 0.01281
321.78 K, 16953 kPa, Liquid | 0.08463
321.81 K, 9811 kPa, Liquid | 0.08084
321.85 K, 5178 kPa, Liquid | 0.07845
321.86 K, 66588 kPa, Liquid | 0.1041
321.88 K, 56118 kPa, Liquid | 0.1004
321.89 K, 16957 kPa, Liquid | 0.0846
321.91 K, 466 kPa, Liquid | 0.07595
321.91 K, 9793 kPa, Liquid | 0.08062
321.92 K, 43825 kPa, Liquid | 0.09584
321.94 K, 145 kPa, Gas | 0.01263
321.94 K, 34296 kPa, Liquid | 0.09207
321.94 K, 43828 kPa, Liquid | 0.09571
321.96 K, 5173 kPa, Liquid | 0.07856
321.96 K, 34304 kPa, Liquid | 0.09237
321.97 K, 142 kPa, Gas | 0.01247
321.97 K, 25089 kPa, Liquid | 0.0883
321.97 K, 66599 kPa, Liquid | 0.1033
321.99 K, 66600 kPa, Liquid | 0.1033
322 K, 56120 kPa, Liquid | 0.09953
322.01 K, 257 kPa, Gas | 0.01246
322.01 K, 259 kPa, Gas | 0.01279
322.01 K, 462 kPa, Liquid | 0.07568
322.04 K, 43829 kPa, Liquid | 0.09557
322.05 K, 99 kPa, Gas | 0.01242
322.05 K, 194 kPa, Gas | 0.01256
322.06 K, 34292 kPa, Liquid | 0.09256
322.06 K, 43826 kPa, Liquid | 0.09519
322.07 K, 189 kPa, Gas | 0.01239
322.08 K, 34300 kPa, Liquid | 0.09194
322.09 K, 98 kPa, Gas | 0.01259
322.09 K, 25078 kPa, Liquid | 0.08798
322.22 K, 122 kPa, Gas | 0.0128
322.23 K, 142 kPa, Gas | 0.01241
322.25 K, 164 kPa, Gas | 0.01289
322.27 K, 260 kPa, Gas | 0.0128
322.29 K, 144 kPa, Gas | 0.01276
322.3 K, 16963 kPa, Liquid | 0.08446
322.32 K, 188 kPa, Gas | 0.01244
322.33 K, 99 kPa, Gas | 0.01222
322.34 K, 258 kPa, Gas | 0.0126
322.36 K, 9801 kPa, Liquid | 0.08109
322.36 K, 66579 kPa, Liquid | 0.1031
322.38 K, 66598 kPa, Liquid | 0.1031
322.39 K, 193 kPa, Gas | 0.01261
322.4 K, 5186 kPa, Liquid | 0.07821
322.4 K, 56115 kPa, Liquid | 0.09929
322.44 K, 98 kPa, Gas | 0.01281
322.44 K, 16945 kPa, Liquid | 0.08465
322.46 K, 43829 kPa, Liquid | 0.09512
322.47 K, 43824 kPa, Liquid | 0.09516
322.49 K, 450 kPa, Liquid | 0.07575
322.49 K, 9815 kPa, Liquid | 0.081
322.49 K, 34282 kPa, Liquid | 0.09204
322.5 K, 66578 kPa, Liquid | 0.1033
322.51 K, 34308 kPa, Liquid | 0.0922
322.51 K, 66603 kPa, Liquid | 0.1032
322.52 K, 141 kPa, Gas | 0.01234
322.54 K, 260 kPa, Gas | 0.01283
322.54 K, 5172 kPa, Liquid | 0.07803
322.54 K, 25075 kPa, Liquid | 0.08816
322.55 K, 123 kPa, Gas | 0.01279
322.56 K, 164 kPa, Gas | 0.0126
322.61 K, 99 kPa, Gas | 0.01223
322.63 K, 187 kPa, Gas | 0.01233
322.63 K, 440 kPa, Liquid | 0.0752
322.63 K, 43821 kPa, Liquid | 0.09452
322.64 K, 143 kPa, Gas | 0.0128
322.64 K, 34270 kPa, Liquid | 0.09178
322.66 K, 34302 kPa, Liquid | 0.09186
322.71 K, 25078 kPa, Liquid | 0.08769
322.72 K, 259 kPa, Gas | 0.01251
322.78 K, 192 kPa, Gas | 0.01262
322.81 K, 141 kPa, Gas | 0.01231
322.82 K, 99 kPa, Gas | 0.01285
322.82 K, 260 kPa, Gas | 0.01282
322.83 K, 123 kPa, Gas | 0.01245
322.89 K, 123 kPa, Gas | 0.01281
322.89 K, 164 kPa, Gas | 0.01245
322.9 K, 164 kPa, Gas | 0.01257
322.9 K, 16956 kPa, Liquid | 0.08425
322.91 K, 99 kPa, Gas | 0.0122
322.91 K, 66592 kPa, Liquid | 0.1026
322.92 K, 186 kPa, Gas | 0.0124
322.92 K, 66618 kPa, Liquid | 0.1032
322.96 K, 56154 kPa, Liquid | 0.09964
322.97 K, 9802 kPa, Liquid | 0.08079
323.03 K, 143 kPa, Gas | 0.01271
323.05 K, 5181 kPa, Liquid | 0.07837
323.06 K, 43815 kPa, Liquid | 0.09535
323.07 K, 16973 kPa, Liquid | 0.08427
323.07 K, 43817 kPa, Liquid | 0.09505
323.08 K, 66614 kPa, Liquid | 0.1032
323.1 K, 259 kPa, Gas | 0.01262
